Laboratory results reported in ChEMBL document CHEMBL5620413, “Novel pterostilbene derivatives ameliorate heart failure by reducing oxidative stress and inflammation through regulating Nrf2/NF-κB signaling pathway” (Eur J Med Chem, 2023).
The source made the active and inactive calls. The rule behind the calls is not given here.

system: RAW264.7; assay: Antiinflammatory activity in mouse RAW264.7 cells assessed as decrease in LPS-induced NO production at 10 uM preincubated for 1 hr followed by LPS treatment for 24 hrs by Griess reagent based assay; type: functional, cell-based; conditions: time 25.0 hrs

Row | SMILES | Activity
1 | C=CCOc1ccc(/C=C/c2cc(OC)cc(OC)c2/C=C/C(=O)c2cccc(C)c2)cc1 | Active
2 | C=CCOc1ccc(/C=C/c2cc(OC)cc(OC)c2/C=C/C(=O)c2cccc(Br)c2)cc1 | Active
3 | COCCCCOc1ccc(/C=C/c2cc(OC)cc(OC)c2/C=C/C(=O)c2cccc(C)c2)cc1 | Active
4 | COCCOc1ccc(/C=C/c2cc(OC)cc(OC)c2/C=C/C(=O)c2cccc(C)c2)cc1 | Active
5 | COc1cc(/C=C/c2ccc(OCC3CCCCC3)cc2)c(C2CC(C)=NN2C(C)=O)c(OC)c1 (stereo not drawn) | Active
6 | CCC(C)Oc1ccc(/C=C/c2cc(OC)cc(OC)c2C2CC(C)=NN2C(C)=O)cc1 (stereo not drawn) | Active
7 | CCCCOc1ccc(/C=C/c2cc(OC)cc(OC)c2/C=C/C(=O)c2cccc(C)c2)cc1 | Active
8 | COCCOc1ccc(/C=C/c2cc(OC)cc(OC)c2/C=C/C(=O)c2ccccc2)cc1 | Active
9 | COCCOc1ccc(/C=C/c2cc(OC)cc(OC)c2/C=C/C(=O)c2cccc(OC)c2)cc1 | Active
10 | CCCCOc1ccc(/C=C/c2cc(OC)cc(OC)c2/C=C/C(=O)c2cccc(Br)c2)cc1 | Active
11 | CCCOc1ccc(/C=C/c2cc(OC)cc(OC)c2C2CC(C)=NN2C(C)=O)cc1 (stereo not drawn) | Active
12 | C=CCOc1ccc(/C=C/c2cc(OC)cc(OC)c2C2CC(C)=NN2C(C)=O)cc1 (stereo not drawn) | Active
13 | COc1cc(/C=C/c2ccc(OCc3ccc(F)cc3)cc2)c(/C=C/C(=O)c2cccc(C)c2)c(OC)c1 | Active
14 | COCCCCOc1ccc(/C=C/c2cc(OC)cc(OC)c2C2CC(C)=NN2C(C)=O)cc1 (stereo not drawn) | Active
15 | CCCOc1ccc(/C=C/c2cc(OC)cc(OC)c2/C=C/C(=O)c2cccc(C)c2)cc1 | Active
16 | C=CCOc1ccc(/C=C/c2cc(OC)cc(OC)c2/C=C/C(=O)c2ccccc2)cc1 | Active
17 | COc1cc(/C=C/c2ccc(OCCOc3ccccc3)cc2)c(C2CC(C)=NN2C(C)=O)c(OC)c1 (stereo not drawn) | Active
18 | C=CCOc1ccc(/C=C/c2cc(OC)cc(OC)c2/C=C/C(=O)c2cccc(OC)c2)cc1 | Active
